In patent US6528456B2, “Herbicidal 2-pyrazolyl-6-aryloxypyri(mi)dines” (BASF Aktiengesellschaft, priority 1999, dated 2003):

Key:
Format in all cases: in vivo
[1] = test system: Echinochloa crus-galli; test: Post-emergence test; conditions: 2-4 weeks after treatment
Protocol: (§1) To evaluate their herbicidal activity, compounds according to the invention are tested using a representative range of plants: ECHCG Echinochloa crus-galli [table] […] These acetone solutions are diluted with water and the resulting formulations applied at dosage levels equivalent of about 0.1 to 0. 4 kg per hectare of test compound per pot. After spraying the plants are placed on greenhouse benches and are cared for in the usual manner, commensurate with conventional greenhouse practices. From 2 to 4 weeks after treatment, the seedling plants are examined and rated according to the rating system provided above.

[2] = test system: Hordeum vulgare; test: Post-emergence test; conditions: 2-4 weeks after treatment
Protocol: as §1, with “HORVW Hordeum vulgare” for “ECHCG Echinochloa crus-galli”

[3] = test system: Ipomoea hederacea; test: Pre-emergence test; conditions: 3 weeks after treatment
Protocol: (§2) To evaluate their herbicidal activity, compounds according to the invention are tested using a representative range of plants: IPHOE Ipomoea hederacea The pre-emergence tests involve spraying a liquid formulation of the compound onto the soil in which the seeds of the plant species mentioned above has recently been sown. The soil used in the tests is a prepared horticultural loam. The formulations used in the tests are prepared from solutions of the test compounds in acetone containing 0.4% by weight of an alkylphenol/ethylene oxide condensate available under the trade mark TRITON X-155. These acetone solutions are diluted with water and the resulting formulations applied at dosage levels corresponding to 0.025 kg, 0.100 kg or 0.400 kg of active material per hectare in a volume equivalent to 900 litres per hectare. In these tests untreated sown soil are used as controls. From 2 to 4 weeks after treatment, the tests are terminated and each pot is examined and rated according to the rating system set forth below: [table]

[4] = test system: Galium aparine; test: Post-emergence test; conditions: 2-4 weeks after treatment
Protocol: as §1, with “GALAP Galium aparine” for “ECHCG Echinochloa crus-galli”

[5] = test system: Triticum aestivum; test: Post-emergence test; conditions: 2-4 weeks after treatment
Protocol: as §1, with “TRZAW Triticum aestivum” for “ECHCG Echinochloa crus-galli”

[6] = test system: Triticum aestivum; test: Pre-emergence test; conditions: 3 weeks after treatment
Protocol: as §2, with “TRZAW Triticum aestivum” for “IPHOE Ipomoea hederacea”

[7] = test system: Zea mays; test: Post-emergence test; conditions: 2-4 weeks after treatment
Protocol: as §1, with “ZEAMX Zea mays” for “ECHCG Echinochloa crus-galli”

[8] = test system: weeds; test: Overall weed control in pre- and post-emergence application; conditions: dose of 0.1 kg/ha
Protocol: (§3) The pre-emergence tests involve spraying a liquid formulation of the compound onto the soil in which the seeds of the plant species mentioned above has recently been sown. The soil used in the tests is a prepared horticultural loam. The formulations used in the tests are prepared from solutions of the test compounds in acetone containing 0.4% by weight of an alkylphenol/ethylene oxide condensate available under the trade mark TRITON X-155. These acetone solutions are diluted with water and the resulting formulations applied at dosage levels corresponding to 0.025 kg, 0.100 kg or 0.400 kg of active material per hectare in a volume equivalent to 900 litres per hectare. In these tests untreated sown soil are used as controls. […] These acetone solutions are diluted with water and the resulting formulations applied at dosage levels equivalent of about 0.1 to 0. 4 kg per hectare of test compound per pot. After spraying the plants are placed on greenhouse benches and are cared for in the usual manner, commensurate with conventional greenhouse practices. From 2 to 4 weeks after treatment, the seedling plants are examined and rated according to the rating system provided above.

[9] = test system: soybeans, wheat; test: Crop selectivity in pre- and post-emergence application; conditions: dose of 0.1 kg/ha
Protocol: as §3

[10] = test system: Stellaria media; test: Post-emergence test; conditions: 2-4 weeks after treatment
Protocol: as §1, with “STEME Stellaria media” for “ECHCG Echinochloa crus-galli”

| SMILES | ECHCG herbicidal rating ([1]; 0.1 kg/ha) | ECHCG herbicidal rating ([1]; 0.4 kg/ha) | HORVW herbicidal rating ([2]; 0.1 kg/ha) | HORVW herbicidal rating ([2]; 0.4 kg/ha) | IPOHE herbicidal rating ([3]; 0.025 kg/ha) | IPOHE herbicidal rating ([3]; 0.100 kg/ha) | IPOHE herbicidal rating ([3]; 0.400 kg/ha) | GALAP herbicidal rating ([4]; 0.1 kg/ha) | GALAP herbicidal rating ([4]; 0.4 kg/ha) | TRZAW herbicidal rating ([5]; 0.1 kg/ha) | TRZAW herbicidal rating ([5]; 0.4 kg/ha) | TRZAW herbicidal rating ([6]; 0.025 kg/ha) | TRZAW herbicidal rating ([6]; 0.100 kg/ha) | TRZAW herbicidal rating ([6]; 0.400 kg/ha) | ZEAMX herbicidal rating ([7]; 0.1 kg/ha) | ZEAMX herbicidal rating ([7]; 0.4 kg/ha) | overall levels of weed control [8] | tolerance in soybeans and wheat [9] | STEME herbicidal rating ([10]; 0.1 kg/ha) | STEME herbicidal rating ([10]; 0.4 kg/ha) |
| --- | --- | --- | --- | --- | --- | --- | --- | --- | --- | --- | --- | --- | --- | --- | --- | --- | --- | --- | --- | --- |
| Cc1cc(Oc2cccc(C(F)(F)F)c2)nc(-c2cc(C(F)(F)F)nn2C)c1 [Example 63] | 3 (3 - Moderate effect) | 3 (3 - Moderate effect) | 3 (3 - Moderate effect) | 3 (3 - Moderate effect) | 0 (0 - No effect) | 0 (0 - No effect) | 3 (3 - Moderate effect) | 5 (5 - Definite injury) | 5 (5 - Definite injury) | 3 (3 - Moderate effect) | 3 (3 - Moderate effect) | 0 (0 - No effect) | 0 (0 - No effect) | 0 (0 - No effect) | 2 (2 - Slight effect) | 3 (3 - Moderate effect) | – | – | – | – |
| Cc1cnc(-c2cc(C(F)(F)F)nn2C)nc1Oc1cc(C(F)(F)F)nn1C [Example 4, 2-(1-Methyl-3-trifluoromethylpyrazol-5-yl)-6-(1-methyl-3-trifluoromethylpyrazol-5-yloxy)-5-methylpyrimidine] | 8 (8 - Approaching complete kill) | 8 (8 - Approaching complete kill) | 3 (3 - Moderate effect) | 5 (5 - Definite injury) | 4 (4 - Injury) | 6 (6 - Herbicidal effect) | 9 (9 - Complete kill) | 8 (8 - Approaching complete kill) | 9 (9 - Complete kill) | 3 (3 - Moderate effect) | 5 (5 - Definite injury) | 1 (1 - Trace effect) | 2 (2 - Slight effect) | 4 (4 - Injury) | 2 (2 - Slight effect) | 4 (4 - Injury) | good overall levels of weed control | well tolerated | 5 (5 - Definite injury) | 6 (6 - Herbicidal effect) |
| Cn1nc(C(F)(F)F)cc1Oc1cc(C#N)cc(-c2cc(C(F)(F)F)nn2C)n1 [Example 3, 4-Cyano-2-(1-methyl-3-trifluoromethylpyrazol-5-yloxy)-6-(1-methyl-3-trifluoromethylpyrazol-5-yl)pyridine] | 4 (4 - Injury) | 4 (4 - Injury) | 3 (3 - Moderate effect) | 5 (5 - Definite injury) | 2 (2 - Slight effect) | 2 (2 - Slight effect) | 9 (9 - Complete kill) | 3 (3 - Moderate effect) | 9 (9 - Complete kill) | 3 (3 - Moderate effect) | 4 (4 - Injury) | 0 (0 - No effect) | 0 (0 - No effect) | 4 (4 - Injury) | 2 (2 - Slight effect) | 4 (4 - Injury) | good overall levels of weed control | well tolerated | – | – |
